Experimental data from US20060030556A1, “Neurokinin-1 receptor antagonists for the treatment of conditions responsive to testosterone elevation, including testosterone deficiency” (SOLVAY PHARMACEUTICALS B.V., priority 2004, published 2006).

Columns and labels:
[1] = Serum testosterone in chronic psychosocial stress with concomitant Compound 1 treatment (enzyme-immunoassay); assay type: in vivo, tree shrews (Tupaia belangen)
Description: (§1) The experiments were carried out using tree shrews (Tupaia belangen). Experimentally naive adult male tree shrews were obtained from the breeding colony at the German Primate Center (Göttingen, Germany). Animals were housed individually in air-conditioned facilities on a 12 hr/12 hr light/dark cycle with artificial illumination (lights on from 8:00 A.M. to 8:00 P.M.) and with free access to food and water (Fuchs E. “Tree shrews”, In: Poole T, (ed) UFAW handbook on the care and management of laboratory animals Oxford: Blackwell, 235-245, 1999). All treatments were performed during the day (activity period, lights on). Animal experiments were conducted in accordance with the European Communities Council Directive of Nov. 24, 1986 […] and were approved by the Government of Lower Saxony, Germany.
The experimental design was as follows: Animals were divided into three experimental groups: ‘Control’, ‘Stress’ and ‘Stress+Compound 1’, each consisting of six tree shrews. The experiment consisted of three different phases and lasted for six weeks (42 days). The first experimental phase went on for 7 days, during which all animals remained undisturbed and body weight was recorded daily. The second phase of the experiment was a 7-day period, during which the animals of the Stress' and the ‘Stress+Compound 1’ group were submitted to daily psychosocial conflict. For the induction of psychosocial conflict one naive male was introduced into the cage of a socially experienced male. After establishment of a clear dominant/subordinate relationship, the two animals were separated by a wire mesh barrier. […]
For determination of testosterone, 100 μl serum was two times extracted with 1 ml of diethylether by vortexing for 10 min. […] 50 μl aliquots of reconstituted extracts were then measured for concentrations of testosterone by enzyme-immunoassay as described by Kraus et al. (Physiol. Behav. 66: 855-861, 1999). […]
Serum testosterone levels were measured from blood samples collected before perfusing the animals. […]

[2] = tested on: NK1 receptors in the tree shrew brain; assay: Nicotine-induced emesis pilot study to establish the dose that blocks NK1 receptors in tree shrew brain; assay type: in vivo, tree shrews (Tupaia belangen); conditions: 30 min before s.c. (-)-nicotine 4 mg/kg, episodes counted over following 30 min, n=4 crossover
Description: as §1
Animals received the NK1 receptor antagonist Compound 1 orally. A pilot study to establish the dose of Compound 1 that blocks NK1 receptors in the tree shrew brain was conducted. The methodology used is based on the ability of NK1 receptor antagonists to block nicotine-induced vomiting in musk shrews (Tattersall et al., Neuropharmacology, 34, 1697-1699, 1995). Adult tree shrews (n=4) received either vehicle or Compound 1 in different dosage orally followed 30 minutes later by subcutaneous administration of (−)-nicotine (4 mg/kg; Sigma), and the number of emetic episodes occurring during the following 30 min was recorded. Each animal received each treatment in a crossover design, with 10 days washout period between studies. Emetic episodes were abolished by treatment with 20 mg/kg per day Compound 1, whereas lower doses, i.e. 5 or 10 mg/kg per day and vehicle were ineffective.

[3] = 20 mg/kg/day oral for 28 days, p<0.05

O=C(c1cccc(C(F)(F)F)c1)N1C[C@H]2CC[C@H](N3CCOCC3)CN2C[C@H]1Cc1c[nH]c2ccccc12 [Compound 1]
serum testosterone concentrations compared to 'Control' animals [1, 3]: two fold increase | testosterone levels compared to the 'Stress' group [1, 3]: six times higher | Serum testosterone concentration ([1]; Stress + Compound 1 group, 20 mg/kg/day oral for 28 days during psychosocial stress, n = 6, p<0.05 versus Control and versus Stress): 6.45 ± 2.00 *# (n = 6) ng/ml | emetic episodes after (-)-nicotine ([2]; 5 mg/kg per day oral): ineffective | emetic episodes after (-)-nicotine ([2]; 10 mg/kg per day oral): ineffective | emetic episodes after (-)-nicotine ([2]; 20 mg/kg per day oral): abolished
